Among the data in PubChem BioAssay AID1963425 (Molecular Pharmacology Branch, DTP, NCI, 2024) are IC50 and viability, T/C values, retold here.

This test relates to 323965-272-R-J2-PDC complex spheroid growth, % test/control. Put plainly: Anticancer human tumor 323965-272-R-J2-PDC patient-derived pancreatic carcinoma cell line growth inhibition [Asc]. Particulars: for viability, T/C: stronger effect = lower value. In a few lines: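 Stromal components (HUVEC and hMSC) are co-assembled with the cancer cells into multicellular spheroids. Drugs are then added singly or paired, at concentrations falling by half-log increments from a clinically achievable maximum, capped at 10 microM without known Cmax.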

Where [1] appears, read: curve of first compound, second compound 0.00949 µM.
Setting [2] is: curve of first compound, second compound 0.03 µM.
Where [3] appears, read: curve of first compound, second compound 0.0949 µM.
Where [4] appears, read: curve of first compound, second compound 0.3 µM.
Where [5] appears, read: curve of first compound, second compound 0.949 µM.
Setting [6] is: curve of first compound, second compound 3 µM.
Setting [7] is: second compound 0.00949 µM, first compound 0.00316 µM.
Setting [8] is: second compound 0.00949 µM, first compound 0.01 µM.
Setting [9] is: second compound 0.00949 µM, first compound 0.0316 µM.
Where [10] appears, read: second compound 0.00949 µM, first compound 0.1 µM.
Where [11] appears, read: second compound 0.03 µM, first compound 0.00316 µM.
Where [12] appears, read: second compound 0.03 µM, first compound 0.01 µM.
Setting [13] is: second compound 0.03 µM, first compound 0.0316 µM.
Setting [14] is: second compound 0.03 µM, first compound 0.1 µM.
Where [15] appears, read: second compound 0.0949 µM, first compound 0.00316 µM.
[16] abbreviates: second compound 0.0949 µM, first compound 0.01 µM.
Setting [17] is: second compound 0.0949 µM, first compound 0.0316 µM.
Where [18] appears, read: second compound 0.0949 µM, first compound 0.1 µM.
[19] abbreviates: second compound 0.3 µM, first compound 0.00316 µM.
[20] abbreviates: second compound 0.3 µM, first compound 0.01 µM.
Where [21] appears, read: second compound 0.3 µM, first compound 0.0316 µM.
[22] abbreviates: second compound 0.3 µM, first compound 0.1 µM.
[23] abbreviates: second compound 0.949 µM, first compound 0.00316 µM.
[24] abbreviates: second compound 0.949 µM, first compound 0.01 µM.
Where [25] appears, read: second compound 0.949 µM, first compound 0.0316 µM.
The mark [26] stands for this setting: second compound 0.949 µM, first compound 0.1 µM.
[27] abbreviates: second compound 3 µM, first compound 0.00316 µM.
The mark [28] stands for this setting: second compound 3 µM, first compound 0.01 µM.
Where [29] appears, read: second compound 3 µM, first compound 0.0316 µM.
[30] abbreviates: second compound 3 µM, first compound 0.1 µM.

Structures are written as SMILES. Where “and” joins values, the source holds several entries; their conditions need not be identical. Identical values can stand only once.
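Further: compound exposure lasted 7 days starting three days after spheroid seeding.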
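Wherever viability, T/C is given: 100% = DMSO vehicle control wells with viability set relative to vehicle.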

With `Cn1ncnc1[C@H]1c2n[nH]c(=O)c3cc(F)cc(c23)N[C@@H]1c1ccc(F)cc1` + CCN1C(C(=O)NC23CCC(C(=O)O)(CC2)CC3)C(c2cccc(Cl)c2F)C2(C(=O)Nc3cc(Cl)ccc32)C12CCCCC2, the IC50 reads like this: under setting [1], above 0.1 µM; under setting [2], above 0.1 µM; under setting [3], above 0.1 µM; under setting [4], above 0.1 µM; under setting [5], above 0.1 µM; under setting [6], above 0.1 µM. The viability, T/C by setting is: (second compound 0.00949 µM, first compound 0.000316 µM) 114%; (second compound 0.00949 µM, first compound 0.001 µM) 104%; under setting [7], 108%; under setting [8], 113%; under setting [9], 112%; under setting [10], 98.3%. The viability, T/C is 124% (second compound 0.03 µM, first compound 0.000316 µM); 116% (second compound 0.03 µM, first compound 0.001 µM); 122% under setting [11]; 105% under setting [12]; 116% under setting [13]; 108% under setting [14]. Moreover, the viability, T/C (second compound 0.0949 µM, first compound 0.000316 µM) was 123%; the viability, T/C (second compound 0.0949 µM, first compound 0.001 µM) was 116%; the viability, T/C under setting [15] is 104%; the viability, T/C under setting [16] was 96.6%; the viability, T/C under setting [17] was 103%; the viability, T/C under setting [18] was 102%. Also, the viability, T/C is 115% (second compound 0.3 µM, first compound 0.000316 µM); 118% (second compound 0.3 µM, first compound 0.001 µM); 125% under setting [19]; 108% under setting [20]; 114% under setting [21]; 77.7% under setting [22]. Further, the viability, T/C is, setting by setting: (second compound 0.949 µM, first compound 0.000316 µM) 118%; (second compound 0.949 µM, first compound 0.001 µM) 114%; under setting [23], 110%; under setting [24], 113%; under setting [25], 117%; under setting [26], 93.1%. For the same compound, the viability, T/C (second compound 3 µM, first compound 0.000316 µM) is 118%; the viability, T/C (second compound 3 µM, first compound 0.001 µM) was 109%; the viability, T/C under setting [27] is 96%; the viability, T/C under setting [28] was 105%; the viability, T/C under setting [29] is 96.9%; the viability, T/C under setting [30] is 85.8%.
As to `CNC(C)C(=O)NC1CN(S(=O)(=O)c2cccc(S(=O)(=O)N3CCC4CCC(C(=O)NC(c5ccccc5)c5ccccc5)N4C(=O)C(NC(=O)C(C)NC)C3)c2)CCC2CCC(C(=O)NC(c3ccccc3)c3ccccc3)N2C1=O` (stereo unspecified), the viability, T/C reads like this: (compound 0.01 µM) 109% [middle of 9 runs]; (compound 0.1 µM) 106% [middle of 9 runs]; (compound 0.316 µM) 100% [middle of 9 runs]. In addition, the IC50 is above 1 µM (compound alone, run of 11/15/2022) and above 1 µM (curve of compound).
In the case of `C=C(F)C(=O)N1CCN(c2nc(OCC3CCCN3C)nc3c2CCN(c2cccc4cccc(Cl)c24)C3)CC1CC#N` (stereo unspecified), the viability, T/C reads like this: (compound 0.0316 µM) 56.9% and 67.8% and 73.2%; (compound 0.1 µM) 51.6% and 58.2% and 53.8%; (compound 0.316 µM) 47.7% and 60% and 57.1%; (compound 1 µM) 59% and 70.1% and 72.8%; (compound 3.16 µM) 61.5% and 76.8% and 82.5%. Also, the IC50 (curve of compound) was 3.55 µM and 4.84 µM and 5.67 µM.
For the compound `NC1CCC(NC2CC2c2ccccc2)CC1` (stereo unspecified), the viability, T/C (compound 0.000316 µM) is 97.5% and 97% and 94.2%; the viability, T/C (compound 0.001 µM) is 105% and 97.8% and 90%; the viability, T/C (compound 0.00316 µM) is 102% and 98.4% and 89.8%; the viability, T/C (compound 0.01 µM) is 101% and 97.8% and 90.7%; the viability, T/C (compound 0.0316 µM) is 120% and 103% and 94%; the viability, T/C (compound 0.1 µM) was 110% and 90.2% and 92.5%. Also, the IC50 (curve of compound) is above 0.1 µM.
As for `C=CC(=O)N1CCN(c2nc(=O)n(-c3c(C)ccnc3C(C)C)c3nc(-c4c(O)cccc4F)c(F)cc23)C(C)C1` (stereo unspecified), the viability, T/C by setting is: (compound 0.0316 µM) 68.7% and 71.9% and 67.7%; (compound 0.1 µM) 56.3% and 59.3% and 71.6%; (compound 0.316 µM) 58.4% and 59% and 65.9%; (compound 1 µM) 57% and 64.3% and 67.5%; (compound 3.16 µM) 66.4% and 72.1% and 67.5%; (compound 10 µM) 64.8% and 65.6% and 61.1%. For the same compound, the IC50 (curve of compound) was above 10 µM.
As to `COc1c(OCCCN2CCOCC2)ccc2c3n(c(=NC(=O)c4cnc(N)nc4)nc12)CCN3` + CCN1C(C(=O)NC23CCC(C(=O)O)(CC2)CC3)C(c2cccc(Cl)c2F)C2(C(=O)Nc3cc(Cl)ccc32)C12CCCCC2, the IC50 under setting [1] amounted to 0.151 µM; the IC50 under setting [2] was 0.13 µM; the concentration for half-maximal inhibition (IC50) under setting [3] is 0.13 µM; the IC50 under setting [4] is 0.133 µM; the IC50 under setting [5] amounted to 0.138 µM; the IC50 under setting [6] was determined as 0.102 µM. For the same compound, the viability, T/C reads like this: under setting [7], 96%; under setting [8], 97.7%; under setting [9], 70.7%; under setting [10], 62.5%; (second compound 0.00949 µM, first compound 0.316 µM) 34.2%; (second compound 0.00949 µM, first compound 1 µM) 25.7%. Also, the viability, T/C was 103% under setting [11]; 96.4% under setting [12]; 73.3% under setting [13]; 52.2% under setting [14]; 42.2% (second compound 0.03 µM, first compound 0.316 µM); 30.4% (second compound 0.03 µM, first compound 1 µM). The viability, T/C runs as follows: under setting [15], 97%; under setting [16], 85.6%; under setting [17], 78.5%; under setting [18], 50.7%; (second compound 0.0949 µM, first compound 0.316 µM) 38.4%; (second compound 0.0949 µM, first compound 1 µM) 25.5%. Moreover, the viability, T/C is, setting by setting: under setting [19], 101%; under setting [20], 89.2%; under setting [21], 69.8%; under setting [22], 56.3%; (second compound 0.3 µM, first compound 0.316 µM) 36.6%; (second compound 0.3 µM, first compound 1 µM) 27.6%. The viability, T/C was 99.7% under setting [23]; 82.7% under setting [24]; 70.3% under setting [25]; 51% under setting [26]; 42.3% (second compound 0.949 µM, first compound 0.316 µM); 30.1% (second compound 0.949 µM, first compound 1 µM). Also, the viability, T/C was 89.4% under setting [27]; 82.4% under setting [28]; 63.9% under setting [29]; 49.6% under setting [30]; 38.5% (second compound 3 µM, first compound 0.316 µM); 26% (second compound 3 µM, first compound 1 µM).
For the compound `Cn1ncnc1[C@H]1c2n[nH]c(=O)c3cc(F)cc(c23)N[C@@H]1c1ccc(F)cc1`, the viability, T/C runs as follows: (compound 0.000316 µM) 103% and 109% and 106%; (compound 0.001 µM) 96.5% and 103% and 99.3%; (compound 0.00316 µM) 103% and 104% and 99.2%; (compound 0.01 µM) 96.4% (2×) and 120%; (compound 0.0316 µM) 103% and 95.3% and 106%; (compound 0.1 µM) 89.7% and 95.6% and 94.9%. Besides, the IC50 (curve of compound) was above 0.1 µM.

One may read the IC50 as the concentration needed to halve the response being measured. Broadly, the viability, T/C is the result in the treated group divided by that in the control group, in per cent.
